Measured values taken from paper doi:10.1101/2025.10.01.679885v1, “Kinetic and thermodynamic analysis of PKA-R–cAMP interactions in crude media using focal molography” (biorxiv, 2025).
Where two headings read alike, the source gives them in different places.

Assays:
[1] = target: T1, PKA-R (bovine RIα 92-260; bRIα 92–260) (Bos taurus, UniProt P00514); experiment: biochemical; parameters: focal molography, PKA-R binding to immobilized cAMP analogue, multi-cycle kinetics, 20 °C, buffer A or 50% human serum; settings: 20 °C, mean of three replicates; for koff: read-out: koff [10^-2 s^-1]; for kon: read-out: kon [10^5 M^-1 s^-1]
T1 construct: gene PRKAR1A; expressed in E. coli BL21 (DE3) RIL
T1 sequence (P00514 93-261): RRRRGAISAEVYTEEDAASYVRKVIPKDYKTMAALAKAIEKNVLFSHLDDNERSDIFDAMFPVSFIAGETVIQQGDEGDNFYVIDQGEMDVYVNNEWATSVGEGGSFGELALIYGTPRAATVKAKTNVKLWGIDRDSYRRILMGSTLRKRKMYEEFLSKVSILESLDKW
Method: In order to determine the kinetic parameters of the PKA-R–cAMP interaction, multi cycle kinetic experiments were conducted in both buffer and 50% human serum at 20^◦C with intermediate regeneration. […] The sensor maintained reliable performance in both conditions, with no evidence of non-specific binding in serum. During these experiments, optimal experimental settings were refined iteratively to achieve the ideal flow rates and best transition times between association and dissociation phase. […] To mitigate this, buffer A was supplemented with bovine serum albumin (BSA) at a concentration of 1 mg/mL, which successfully eliminated sample depletion. […] Nevertheless, subtle differences in the association rate constant (kon) and dissociation rate constant (koff) are evident between the two media. These variations likely stem from the complex biological environment in serum, where interactions with additional serum components may slightly alter the binding dynamics. To ensure that the extracted kinetic parameters accurately represent the specific PKA-R–cAMP interaction, only the initial 15% of the dissociation phase was used to determine koff, thereby minimizing the influence of incomplete dissociation due to the residual sticking of the protein to the surface. Table 2 summarizes the triplicate kinetic measurements for both 6-AH-cAMP and 8-AHA-cAMP in buffer and serum. The equilibrium dissociation constants (KD) remain in the nanomolar range under all conditions. In this study, we use focal molography to investigate the interaction between the cAMP binding domain A of the bovine R subunit Iα of PKA (bRIα 92–260) (PKA-R) and cyclic AMP (cAMP) analogues in both buffer and 50% human serum. The R-subunit inhibits protein kinase activity of the catalytic subunit of PKA by direct binding. By quantifying kinetic and thermodynamic parameters across a physiological temperature range, we examine how the biological environment alters the enthalpic and entropic contributions to binding.

[2] = target: T1, PKA-R (bovine RIα 92-260; bRIα 92–260); experiment: biochemical; parameters: Focal molography, immobilised cAMP analogue, PKA-R as analyte; KD at 293 K from van't Hoff fit; settings: 293 K, van't Hoff fit
Excerpt: In this study, we use focal molography to investigate the interaction between the cAMP binding domain A of the bovine R subunit Iα of PKA (bRIα 92–260) (PKA-R) and cyclic AMP (cAMP) analogues in both buffer and 50% human serum. The R-subunit inhibits protein kinase activity of the catalytic subunit of PKA by direct binding. By quantifying kinetic and thermodynamic parameters across a physiological temperature range, we examine how the biological environment alters the enthalpic and entropic contributions to binding. […] In order to determine the kinetic parameters of the PKA-R–cAMP interaction, multi cycle kinetic experiments were conducted in both buffer and 50% human serum at 20^◦C with intermediate regeneration. […] The sensor maintained reliable performance in both conditions, with no evidence of non-specific binding in serum. During these experiments, optimal experimental settings were refined iteratively to achieve the ideal flow rates and best transition times between association and dissociation phase. […] To mitigate this, buffer A was supplemented with bovine serum albumin (BSA) at a concentration of 1 mg/mL, which successfully eliminated sample depletion. […] Fig 8 summarizes the resulting thermodynamic parameters calculated at 293 K (see S1 Table for data). For both ligands, binding to PKA-R remains highly favorable in both media, with ΔG values around −10 kcal/mol yielding similar affinities. However, the underlying driving forces appear to differ between buffer and serum. […] In contrast, the interaction in 50% serum becomes more enthalpy driven for both ligands. For 6-AH-cAMP, ΔH drops to −7.4 kcal/mol, while the entropic contribution increases to −2.6 kcal/mol. For 8-AHA-cAMP, the transition is even more striking: binding becomes entirely enthalpy driven in serum, with an unfavorable entropy change (−T ΔS = 1.2 kcal/mol) and a strong enthalpic contribution (ΔH = −11.3 kcal/mol). All thermodynamic parameters were extracted from the linear fits to the van’t Hoff plots via standard error propagation from the covariance matrix returned by the linear regression. Specifically, standard deviations for ΔH, ΔS, and ΔG were calculated using the variances and covariances of the fitted slope and intercept. The reported KD values represent the predicted equilibrium dissociation constants at 293 K based on the linear fits, with associated uncertainties derived from the propagated variance in ln(KD).

[3] = 50% human serum, read-out: KD [nM] Focal Mol. (Serum)
[4] = buffer, read-out: KD [nM] Focal Mol. (Buffer)

Row | Compound | Kd ([1]; 50% human serum) | koff ([1]; 50% human serum) | kon ([1]; 50% human serum) | koff ([1]; buffer A) | kon ([1]; buffer A) | Kd [2, 3] | Kd [2, 4]
1 | NCCCCCCNc1nc2c(N)ncnc2n1[C@@H]1O[C@@H]2COP(=O)(O)O[C@H]2[C@H]1O [8-AHA-cAMP, 8-(6-Aminohexylamino)adenosine-3^′,5^′-cyclic monophosphate] | 33.9 nM | 0.0165 s⁻¹ | 487000 M⁻¹ s⁻¹ | 0.0129 s⁻¹ | 389000 M⁻¹ s⁻¹ | 31 ± 3.4 nM | 25.5 ± 2.5 nM
2 | NCCCCCCNc1ncnc2c1ncn2[C@@H]1O[C@@H]2COP(=O)(O)O[C@H]2[C@H]1O [6-AH-cAMP, N^6-(6-Aminohexyl)adenosine-3^′,5^′-cyclic monophosphate] | 25.4 nM | 0.0122 s⁻¹ | 506000 M⁻¹ s⁻¹ | 0.013 s⁻¹ | 448000 M⁻¹ s⁻¹ | 36.6 ± 0.4 nM | 29.5 ± 0.9 nM
